Data taken from patent publication EP1952812A1, “Drug for treating thalessemia, falciform anemia and all other forms of anemia treatable therewith” (Universita' Degli Studi di Ferrara, priority 2007, dated 2008).

Tests used:
gamma-globin mRNA = gamma-globin mRNA production by quantitative RT-PCR in human erythroid precursors isolated from peripheral blood (two-step Fibach culture); format: cell-based; details: for gamma-globulin mRNA: ratio of mRNA content in UVA-treated cells to that of UVA-untreated cells, cells treated for 6 days
Excerpt: To verify if treatment with 8-meethoxypsoralen and trimethylangelicin photoactivated with UVA light was able to stimulate mRNA production for gamma-globin in human erythroid precursors isolated from peripheral blood, the method used was that described by Fibach et al. (Fibach E. Hemoglobin, 22: 445-458, 1998; Fibach E, Burke KP, Schechter AN, Noguchi CT & Rodgers GP. Blood, 81: 1630-1635, 1993). This method comprises two steps: the cells isolated from peripheral blood of a healthy subject or affected with a hemopoietic pathology, such as falciform anemia or beta-thalessemia, are seeded in culture medium to which 10% of conditioned medium deriving from the bladder carcinoma cell line 5637 is added. The second step consists of cultivating the isolated cells in a suitable culture medium to which erythropoietin hormone, 30% of bovine fetal serum, 2-mercapto-ethanol, albumin, glutamine and desametasone are added to enable proliferation and maturing of erythroid stem cells. In this step the cells can be treated with potential HbF inducers.
The gamma-globin mRNA production level is much higher than that encountered using hydroxyurea as inducer (Fibach E. Hemoglobin, 22: 445-458, 1998; Fibach E, Burke KP, Schechter AN, Noguchi CT & Rodgers GP. Blood, 81: 1630-1635, 1993).

K562 human cell line = assay: Erythroid differentiation of K562 cells (benzidine positivity), with or without UVA photoactivation; format: cell-based; details: percentage of K562 cells positive to benzidine
Description: The evaluation of the biological activity of the treatment with psoralens photoactivated with UVA light was conducted by examining the capacity of these molecules to modulate the gamma-globin gene expression in the K562 human cell line, which is able to differentiate in the erythroid sense by expressing the gamma-globin genes if subjected to treatment with biological response modifiers suitable for the purpose (Lampronti I., Bianchi N Borgatti M., Fibach E.,Prus E.,Gambari R. Eur J Haematology 71 189-195 2003, Bianchi N, Ongaro F, Chiarabelli C, Gualandi L, Mischiati C, Bergamini P, Gambari R. Biochem Pharmacol, 60:31-40, 2000;Bianchi N, Osti F, Rutigliano C, Ginanni Corradini F, Borsetti E, Tomassetti M, Mischiati C, Feriotto G and Gambari R, British Journal of Haematology, 104:258-263, 1999).
The differentiation level was evaluated by analyzing the cell positivity to benzidine (Lampronti I., Bianchi N., Borgatti M., Fibach E., Prus E., Gambari R. Eur J Haematology 71 189-195 2003,).
The gamma-globin coding gene expression was evaluated by quantitative RT-PCR (reverse transcriptase PCR) (Lampronti I., Bianchi N Borgatti M., Fibach E.,Prus E.,Gambari R. Eur J Haematology. 71 189-195 2003) Some of the data obtained are reported in Table 1. As can be easily noted, treatment with different furocoumarin derivatives photoactivated with UVA light are able to induce an increase in the percentage of cells positive to benzidine (60-85% of the treated cells, compared with 5-17% of the K562 control cells treated with furocoumarin derivatives in the absence of UVA light). […] In the control not treated with furocoumarin derivatives, erythrolid differentiation is low (4-6%) both in the absence and in the presence of UVA light.

[1] = Homo sapiens, light or radiation study, 144 h, read-out: gamma-globin mRNA

| Structure (SMILES) | fold induction at 0.25 µM (gamma-globin mRNA; [1]) | fold induction at 1 µM (gamma-globin mRNA; [1]) | Erythroid differentiation with UVA (%) (K562 human cell line; concentration 0.25 µM) | Erythroid differentiation without UVA (%) (K562 human cell line; concentration 0.25 µM) | gamma-globulin mRNA (gamma-globin mRNA; concentration 0.10 µM) | gamma-globulin mRNA (gamma-globin mRNA; concentration 0.50 µM) | Erythroid differentiation with UVA (%) (K562 human cell line; concentration 0.50 µM) | Erythroid differentiation without UVA (%) (K562 human cell line; concentration 0.50 µM) |
| --- | --- | --- | --- | --- | --- | --- | --- | --- |
| COc1c2occc2cc2ccc(=O)oc12 [Compound 8-MOP, 8-methoxypsoralen, reference compound] | 2.76 | 18.5 | 65 | 17 | – | – | – | – |
| Cc1cc(=O)oc2c1cc(C)c1occ(C)c12 [trimethylangelicin] | – | – | – | – | 9.56 | 12.86 | 85 | 5 |
| O=c1ccc2ccc3occc3c2o1 [angelicin] | – | – | – | – | – | – | 60 | 6 |
